From patent publication US12037354B2, “Cyclic pantetheine derivatives and uses thereof” (VectivBio Comet AG, priority 2018, dated 2024) come the findings set out here.

Assay [1] relates to Pkd1-/- mouse inner medullary collecting duct cells (mIMRFNPKD 5E4). The assay is described as follows: mPKD 3D cyst swelling assay (forskolin-induced), Example 818. The class given is cell-based. The conditions noted are these: 50 uM, after 72 hours of forskolin exposure. The protocol:
Cell model and control compounds. mIMCD3 WT cells were obtained via ATCC and modified to create the mIMRFNPKD 5E4 cell line, which has a CRISPR-Cas mediated knockout for Pkd1 as described SLAS Discov. 2017 September; 22(8):974-984. doi: 10.1177/2472555217716056. Cells were cultured in DMEM/F12 (Sigma)+10% FBS (Sigma)+0.5% Pen/Strep (Gibco)+1% GluMax (Gibco). Control compounds used were forskolin (Calbiochem, 344282), Rapamycin (Selleckchem, S1039) and Staurosporin (Selleckchem, S1421).
The 3D mouse cyst swelling assay was performed with Pkd1^−/− mouse inner medullary collecting duct cells (mIMRFNPKD 5E4). The cyst swelling protocol that was used was described previously (SLAS Discov. 2017 September; 22(8):974-984. doi: 10.1177/2472555217716056), with further optimization.
3D culture and compound exposure. mIMRFNPKD 5E4 cells were mixed with Cyst-Gel (OcellO BV). 15 μL of cell-gel mix was pipetted to 384-well plates (Greiner μClear, Greiner Bio-One B.V.) using a CyBio Felix 96/60 robotic liquid dispenser (Analyik Jena AG). […]
Imaging and image analysis. […] Cyst area was determined by calculating for the area in px of each object in every in-focus plain. […] (N represented is number of wells) Fraction of apoptotic nuclei as an indicator of toxicity was calculated as the amount of nuclei without actin signal relative to the total amount of nuclei, both as count-measurements. […]

Assay [2] concerns Monocytes differentiated to M1 macrophages. The assay is described as follows: M1 differentiation assay (TNFα, IL6, IL10 ELISA, FACS), Example 807. It is filed as cell-based, human. How it is done: Monocytes were isolated by positive isolation with CD14+ microbeads (Miltenyi, 130-050-201). Monocytes were 99% viable and were 96% purity as analyzed by FACS and CD14+(BD, 563561). 100,000 monocytes along with compounds at the dose of 10 and 50 μM were allowed to differentiate to macrophages with 10 ng/ml GMCSF (R&D, 15-GM-050/CF) in RPMI complete media (Invitrogen, 22400089) with 15% FBS (Hyclone SV30087.03) and 1% Penicillin-Streptomycin (Gibco, 15140-122). On day 2 and 4 half the media was refreshed with fresh GM-CSF and compounds at 10 and 50 μM dose. On day 6 the macrophages were matured with GMCSF, IFNγ (R&D 285-IF-100/CF) and LPS (Sigma, L6143) in the presence of 10 μM and 50 μM of compounds. After 24 h, supernatant was collected for the measurement of TNFα (DKW, 1117202) IL6 (DKW, 1110602), IL10 (DKW, 1110003) by ELISA. Macrophages were detached gently on ice with EDTA (Invitrogen, 15575-038) and analyzed by FACS (BD LSR Fortessa, 853492). Cells were stained for live/dead dye, surface and intracellular markers with fixation/permeabilization solution (BD, 554714) and ALIVE/DEAD™ Fixable Near-IR Dead Cell Stain Kit (BD, L34976), mouse anti human CD86 APC (BD, 555660), mouse anti-human CD163 PE (BD, 556018), mouse anti-human CD68 FITC (BD, 562117) or isotype controls anti-mouse IgG1 κ PE (BD, 559320) and anti-mouse IgG1 κ APC (BD, Anti mouse IgG1 κ APC (BD, 55571). Mature M1 macrophages were defined as CD86+CD68+CD163− and increase in TNFα, IL6, and decrease in IL-10.

Consider `COC(=O)/C=C/C(=O)SCCNC(=O)CCNC(=O)[C@@H]1OP(=O)(O)OCC1(C)C` [Compound 21], for which the “% prevention of forskolin-induced cyst swelling” value in assay [1] was at least 10%.
Turning to `CC(C)=CC(=O)SCCNC(=O)CCNC(=O)[C@@H]1OC(C)(C)OCC1(C)C` [Compound 850, S-2-(3-{[(R)-2,2,5,5-Tetramethyl-1,3-dioxan-4-yl]carbonylamino}propionylamino)ethyl 3-methyl-2-butenethioate], the “% decrease in Macrophage IL-6 Secretion” value in assay [2] (10 uM) is at least 30%. For the same molecule, the “% decrease in Macrophage TNFα Secretion” value in assay [2] (50 uM) is on record as at least 30%.
In the case of `CC1(C)OC(=O)C(CC(=O)SCCNC(=O)CCNC(=O)[C@@H]2OC(C)(C)OCC2(C)C)O1` (stereo partly drawn) [Compound 851], in assay [2] (10 uM), the “% Increase in IL-10 Secretion” value is at least 30%, the “% decrease in Macrophage IL-6 Secretion” value is at least 30% and the “% decrease in Macrophage TNFα Secretion” value is listed as at least 30%.
